{"source": "PubChem BioAssay AID1397", "about": "(The Scripps Research Institute Molecular Screening Center, 2008)", "note": "pEC50: −log10 of the molar value. Calls of active or inactive are those of the source.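 How the source made its calls: active means potency EC50 for STAT1 activation at or below 10 micromolar; inactive means EC50 above 10 micromolar.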"}
{"test_system": "NIH 3T3 STAT1-luciferase reporter, luminescence", "assay": "enhancement of STAT1 reporter activity – cell-based, NIH 3T3, luciferase luminescence, dose response (AID 1397)", "settings": "not given"}
{"smiles": "Nc1ccccc1C(=O)OCC(=O)N1CCc2ccccc21", "pEC50": 5.65}
{"smiles": "CC(=O)Nc1ccccc1C(=O)OCc1cccc(F)c1", "pEC50": 5.52}
{"test_system": "NIH 3T3 STAT1-luciferase reporter, luminescence", "assay": "enhancement of STAT1 reporter activity – cell-based, NIH 3T3, luciferase luminescence, dose response (AID 1397)", "settings": "cells stimulated with IFN-gamma at EC80"}
{"smiles": "Nc1ccccc1Nc1cc(-c2ccccc2)[nH]n1", "pEC50": 5.57}
{"smiles": "CCCCCNc1nc(-c2ccccc2)cs1", "pEC50": 6.07}
{"smiles": "COc1ccc(N/C=C\\C(=O)c2ccc3c(c2)OCO3)cc1OC", "pEC50": 5.54}
{"smiles": "Cc1ccc(C(=O)Nc2nc3ccccc3s2)s1", "EC50": "> 76 nM (inactive)"}
{"smiles": "Cc1ccc(C(=O)/C=C/Nc2cccc([N+](=O)[O-])c2)o1", "pEC50": 5.86}
{"smiles": "Cc1nc(-c2ccc(NC(=O)c3ccccc3Br)cc2)cs1", "pEC50": 5.59}
{"smiles": "Cc1nc2ccc(-c3nc4ccccc4o3)cc2[nH]1", "pEC50": 6.45}
{"smiles": "Cc1ccc(-c2cc3nc(C)cc(NCc4ccco4)n3n2)cc1", "pEC50": 5.46}
{"smiles": "c1cncc(-c2nc3cc4ccccc4cc3[nH]2)c1", "pEC50": 6.48}
{"smiles": "Fc1ccccc1CSc1nnc(-c2cccnc2)o1", "pEC50": 5.34}
{"smiles": "CC(=O)c1cccc(N/C=C\\C(=O)c2ccc(C)cc2)c1", "EC50": "> 687 nM (inactive)"}
{"smiles": "CCCOC(=O)c1ccc(-c2ccc(C=O)o2)cc1", "pEC50": 6.36}
{"smiles": "CC(=O)c1cccc(NC(=S)NC(=O)c2cccc(C)c2)c1", "pEC50": 5.72}
{"smiles": "C=CCn1c(C)cc(C(=O)CSc2nc3ccccc3o2)c1C", "EC50": "> 229 nM (inactive)"}
{"smiles": "CCNc1nc(-c2cc3ccccc3o2)cs1", "pEC50": 6.75}
{"smiles": "Cc1cc(C(=O)NCCC2=CCCCC2)c(C)o1", "EC50": "> 229 nM (inactive)"}
{"smiles": "c1ccc(CNc2ccc3ccccc3n2)nc1", "EC50": "> 687 nM (inactive)"}
{"smiles": "Cc1ccc(/C=C/C(=O)N2CCCC(C)C2)cc1", "note": "(stereo unspecified)", "EC50": "> 687 nM (inactive)"}
{"smiles": "Cc1cccc(Nc2n[nH]c(C)c2[N+](=O)[O-])c1", "pEC50": 5.91}
{"smiles": "CCOC(=O)/C(C#N)=C/c1cc(C)n(-c2ccccc2)c1C", "pEC50": 7.16}
{"smiles": "C/C(=C\\c1ccccc1)C(=O)Nc1nccs1", "pEC50": 5.68}
{"smiles": "O=C(/C(C=Nc1ccc(Br)cc1)=C(/O)c1ccco1)C(F)(F)F", "EC50": "> 685 nM (inactive)"}
{"smiles": "Cc1nc(-c2ccc(NC(=O)c3ccccc3C)cc2)cs1", "pEC50": 5.73}
{"smiles": "c1csc(C2=NNC(=NC3CCCCC3)SC2)c1", "EC50": "> 688 nM (inactive)"}
{"smiles": "O=C(NC(=S)Nc1ccccn1)c1ccc([N+](=O)[O-])cc1", "pEC50": 6.28}
{"smiles": "NC(=O)Cc1ccc2sc(-c3ccccc3)nc2c1", "pEC50": 6.33}
{"smiles": "COc1ccc(-c2csc(N3C(=O)CNC3=S)n2)cc1", "pEC50": 7.06}
{"smiles": "Clc1ccc(-n2ncc3c(N4CCCC4)ncnc32)cc1", "EC50": "> 55700 nM (inactive)"}
{"smiles": "COc1cccc(NC(=O)Nc2ccc(C(C)(C)C)cc2)c1", "pEC50": 5.55}
{"smiles": "O=C(O)c1ccccc1C(=O)Nc1ccc(-c2csc(-c3ccccc3)n2)cc1", "pEC50": 5.41}
{"smiles": "Cc1ccc(/C=C/C(=O)Nc2ccccc2C(N)=O)cc1", "EC50": "> 687 nM (inactive)"}
{"smiles": "Cc1nc2ccc3nc(NC(=O)c4ccco4)sc3c2s1", "EC50": "11000 nM (inactive)"}
{"smiles": "CN(C)c1nc(N)nc(CSc2nc3cc(Cl)ccc3o2)n1", "EC50": "18600 nM (inactive)"}
{"smiles": "Nc1nc2ccc(-c3nc4ccccc4o3)cc2s1", "pEC50": 6.29}
{"smiles": "O=C(Nc1cccc(Cl)c1)c1ccc2c(=O)n3c(nc2c1)CCCCC3", "pEC50": 6.09}
{"smiles": "CC(=O)COc1ccc2c(C)c(-c3ccccc3)c(=O)oc2c1", "EC50": "31500 nM (inactive)"}
{"smiles": "COc1ccc(-c2cc(C)nc3c(-c4ccccc4)cnn23)cc1", "EC50": "> 76 nM (inactive)"}
{"smiles": "Cc1nnc(SCC(=O)Nc2ccc(-c3nc4ccccc4s3)cc2)s1", "pEC50": 7.03}
{"smiles": "CC(=O)NC(=S)Nc1sc2c(c1C#N)CCCCC2", "EC50": "> 76 nM (inactive)"}
{"smiles": "COc1ccc(/C=C/C(=O)Nc2ccccc2)cc1OC", "pEC50": 5.29}
{"smiles": "CCOC(=O)c1ccc2nc(NC(C)=O)sc2c1", "pEC50": 5.59}
{"smiles": "O=C(OCc1csc(-c2ccccc2)n1)c1cccs1", "EC50": "> 687 nM (inactive)"}
{"smiles": "COc1ccc2[nH]c3c(c2c1)CCn1c-3nc2ccccc2c1=O", "EC50": "> 76 nM (inactive)"}
{"smiles": "C=CCNC(=S)NNC(=O)COc1ccc2cc(Br)ccc2c1", "pEC50": 5.52}
{"smiles": "O=C(NC(=S)Nc1ccc(F)cc1)c1ccc2c(c1)OCCO2", "pEC50": 6.00}
{"smiles": "CC(C)=CC(=O)Nc1nc2ccc([N+](=O)[O-])cc2s1", "pEC50": 5.50}
{"smiles": "CCN(CC)c1ccc2cc(C(=O)Nc3ccccn3)c(=O)oc2c1", "EC50": "> 76 nM (inactive)"}
{"smiles": "C=CCNC(=O)c1cc(-c2ccc(Br)cc2)on1", "pEC50": 6.08}
{"smiles": "CC(C)(C)N=C1NN=C(c2cc3ccccc3o2)CS1", "pEC50": 6.08}
{"smiles": "O=[N+]([O-])c1ccccc1OCCCn1cnc2ccccc21", "pEC50": 5.82}
{"smiles": "O=C(/C=C/c1ccccc1)Nc1ccc(Cl)cn1", "pEC50": 6.17}
{"smiles": "CC(=O)Nc1ccc(-c2csc(Nc3cccc(C)n3)n2)cc1", "pEC50": 5.78}
{"smiles": "CC(=O)Nc1cccc(-c2cnc3ccccc3n2)c1", "pEC50": 5.41}
{"smiles": "CCOC(=O)c1sc(NC(=O)c2sccc2C)cc1C", "pEC50": 6.63}
{"smiles": "CCOC(=O)CSc1nc(-c2ccncc2)ccc1C#N", "pEC50": 5.92}
{"smiles": "CCOCC(=O)Nc1nc2ccc(OCC)cc2s1", "EC50": "> 55700 nM (inactive)"}
{"smiles": "O=C(CCc1nnc(CCCc2ccccc2)o1)N1CCCCCC1", "pEC50": 5.11}
{"smiles": "CN(C)c1ccc(C(=O)OCC(=O)c2cccs2)cc1", "EC50": "> 687 nM (inactive)"}
{"smiles": "COc1cccc(N/C=C/C(=O)c2ccc(Cl)cc2)c1", "pEC50": 6.94}
{"smiles": "Cc1occc1C(=O)Nc1ccc2c(c1)CCC2", "pEC50": 5.80}
{"smiles": "O=C(/C=C/Nc1ccccc1F)c1ccc(Br)cc1", "EC50": "> 76 nM (inactive)"}
{"smiles": "Cc1ccc(-c2cnc(-c3ccncc3)o2)cc1", "pEC50": 5.48}
{"smiles": "Cc1ccc(NC(=O)Nc2ccc3oc(C)nc3c2)cc1", "pEC50": 5.78}
{"smiles": "Cc1ccc2nc(NC(=O)CCn3cccc3)sc2c1", "pEC50": 5.16}
{"smiles": "O=C(/C=C/Nc1ccc(F)cc1)c1ccc(Br)cc1", "pEC50": 6.37}
{"smiles": "COc1cc(NC(=O)c2csc3c2CCCC3)ncn1", "pEC50": 5.92}
{"smiles": "O=C(Cn1cnc2ccccc2c1=O)c1ccc(Cl)cc1", "pEC50": 5.09}
{"smiles": "CCOC(=O)c1cnc2c(-c3ccccc3)cnn2c1N", "pEC50": 6.64}
{"smiles": "COc1ccc2nc(Nc3nc(C)c(C(C)=O)s3)sc2c1", "pEC50": 5.67}
{"smiles": "Nc1ccc2nn(-c3ccccc3)nc2c1", "pEC50": 5.87}
{"smiles": "Cc1ccc(C(=O)N2CCc3ccccc32)o1", "EC50": "> 687 nM (inactive)"}
{"smiles": "Cc1ncsc1C(=O)Nc1nc2c(s1)CCCC2", "pEC50": 5.57}
{"smiles": "O=C(Nc1ccc(-c2nc3cccnc3s2)cc1)c1ccco1", "pEC50": 6.47}
{"smiles": "O=C(/C=C/c1cccc(F)c1)N1CCc2ccccc21", "pEC50": 6.68}
{"smiles": "O=C(/C=C/c1ccco1)Nc1ccccn1", "EC50": "> 687 nM (inactive)"}
{"smiles": "COc1ccc2nc(Nc3ccc4c(c3)OCO4)sc2c1", "pEC50": 5.51}
{"smiles": "CCc1c(C)[nH]c(C(=O)OCc2ccccc2)c1C", "pEC50": 5.16}
{"smiles": "CCc1ccc(Nc2ncc3c(n2)CC(C)CC3=O)cc1", "note": "(stereo unspecified)", "pEC50": 6.12}
{"smiles": "C=CCNc1nc(-c2cc3ccccc3o2)cs1", "EC50": "> 764 nM (inactive)"}
{"smiles": "Cc1ccc(-c2cc(N)n(-c3ccccc3)n2)cc1", "pEC50": 5.52}
{"smiles": "COc1ccc(-c2cc3ncc(-c4ccccc4)c(N)n3n2)cc1", "pEC50": 5.92}
{"smiles": "CC(C)Oc1ccc2c(=O)c(-c3ccccc3)coc2c1", "pEC50": 6.38}
{"smiles": "COc1ccc2c(c1)oc(=O)c1cc(OC)ccc12", "pEC50": 5.37}
{"smiles": "COc1ccc(-c2nc3ccc([N+](=O)[O-])cc3[nH]2)cc1", "pEC50": 6.90}
{"smiles": "CCOc1ccc2nc(N3CCOCC3)nc(C)c2c1", "pEC50": 5.64}
{"smiles": "COc1ccc(Nc2oc(-c3cccs3)nc2C#N)cc1", "pEC50": 5.49}
{"smiles": "CCCCOC(=O)Nc1nc2ccccc2s1", "pEC50": 6.13}
{"smiles": "Nc1ccc2oc(-c3ccccc3Cl)nc2c1", "EC50": "> 229 nM (inactive)"}
{"smiles": "O=C(Nc1nccs1)c1ccc(-c2ccc([N+](=O)[O-])cc2)o1", "pEC50": 5.92}
{"smiles": "Fc1ccc2nc(Nc3nc4cc5c(cc4s3)OCCO5)sc2c1", "pEC50": 5.89}
{"smiles": "Cc1ccc(C(=O)Nc2nc3c(s2)CCCC3)o1", "EC50": "> 229 nM (inactive)"}
{"smiles": "CN1C(=O)/C(=C/C=C2\\SCCN2C)SC1=S", "pEC50": 6.38}
{"smiles": "O=C(Nc1ccc2c(c1)OCCO2)c1ccc(Br)s1", "EC50": "> 229 nM (inactive)"}
{"smiles": "COc1ccc(NC(=S)Nc2ccc3nccnc3c2)cc1", "EC50": "13300 nM (inactive)"}
{"smiles": "Clc1ccc(-n2ncc3c(NCC4CCCO4)ncnc32)cc1", "note": "(stereo unspecified)", "pEC50": 6.39}
{"smiles": "CCc1ccc(NC(=O)N2CCC(c3ccccc3)C2)cc1", "note": "(stereo unspecified)", "pEC50": 5.86}
{"smiles": "CN(C)c1ccnc2sc(C(=O)c3ccccc3)c(N)c12", "pEC50": 5.71}
{"smiles": "O=C(/C(C=Nc1ccc(F)cc1)=C(/O)c1ccco1)C(F)(F)F", "EC50": "> 687 nM (inactive)"}
{"smiles": "O=C(/C=C/c1ccc(F)cc1)Nc1nc2ccccc2[nH]1", "pEC50": 6.04}
{"smiles": "CCC(C)NC(=O)c1cc(-c2ccc(OC)cc2)on1", "note": "(stereo unspecified)", "pEC50": 5.89}
{"smiles": "Nc1ncc(-c2cc3ccccc3oc2=O)s1", "EC50": "> 687 nM (inactive)"}
{"smiles": "O=C(NCCC1=CCCCC1)c1ccc(F)cc1", "EC50": "> 687 nM (inactive)"}
{"smiles": "N#C/C(=C\\c1ccc(N2CCOCC2)o1)c1nc2ccccc2[nH]1", "EC50": "> 76 nM (inactive)"}
{"smiles": "O=C(c1ccccc1)c1ccc(N2CCCC2)cc1", "pEC50": 5.71}
